Measurements reported in PubChem BioAssay AID330 (DTP/NCI, 2004).
Where “and” joins values, the source holds several entries; their conditions need not be identical. Identical values can stand only once. Toxic doses and inconclusive results are not listed.

Test system: P388 leukemia ip, CD2F1 mice, survival T/C
Assay: NCI In Vivo Anticancer Drug Screen. Data for tumor model P388 Leukemia (intraperitoneal) in CD2F1 (CDF1) mice
Details: endpoint: median survival time, higher = longer survival
Procedure, shortened: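 Mice carrying the transplanted tumor received test compound or vehicle. Survival was recorded in each group, and the value is the treated-group measurement divided by that of the vehicle-treated control group.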

[1] = dose: 60.0 mg/kg/injection, schedule: Q01DX005 (ip), vehicle: saline with Tween-80
[2] = dose: 120.0 mg/kg/injection, schedule: Q01DX005 (ip), vehicle: saline with Tween-80
[3] = dose: 240.0 mg/kg/injection, schedule: Q01DX005 (ip), vehicle: saline with Tween-80

## O=[N+]([O-])C(CO)CCC(CO)[N+](=O)[O-] (stereo not drawn)
dose: 100.0 mg/kg/injection, schedule: Q04DX003 (ip), vehicle: Klucel (hydroxypropylcellulose) (HPC)
  T/C: 96 % of control
dose: 200.0 mg/kg/injection, schedule: Q04DX003 (ip), vehicle: Klucel (hydroxypropylcellulose) (HPC)
  T/C: 98 % of control
dose: 400.0 mg/kg/injection, schedule: Q04DX003 (ip), vehicle: Klucel (hydroxypropylcellulose) (HPC)
  T/C: 88 % of control

## NC(=O)Cn1ccnc1[N+](=O)[O-]
dose: 12.5 mg/kg/injection, schedule: Q01DX009 (ip), vehicle: water
  T/C: 93 % of control
dose: 25.0 mg/kg/injection, schedule: Q01DX009 (ip), vehicle: water
  T/C: 99 % of control
dose: 50.0 mg/kg/injection, schedule: Q01DX009 (ip), vehicle: water
  T/C: 90 % of control
dose: 100.0 mg/kg/injection, schedule: Q01DX009 (ip), vehicle: water
  T/C: 118 % of control
dose: 200.0 mg/kg/injection, schedule: Q01DX009 (ip), vehicle: water
  T/C: 107 % of control

## CC(C)(C)c1ccc(C(C)(C)C)c(N2C(=O)c3ccc4c5ccc6c7c(ccc(c8ccc(c3c48)C2=O)c75)C(=O)N(c2cc(C(C)(C)C)ccc2C(C)(C)C)C6=O)c1
[1]
  T/C: 95 % of control
[2]
  T/C: 90 % of control
[3]
  T/C: 99 % of control

## COc1ccc2ccc(CCC(=O)O)cc2c1
dose: 12.5 mg/kg/injection, schedule: Q01DX009 (ip), vehicle: distilled water + Tween-80
  T/C: 100 % of control
dose: 25.0 mg/kg/injection, schedule: Q01DX009 (ip), vehicle: distilled water + Tween-80
  T/C: 100 % of control
dose: 50.0 mg/kg/injection, schedule: Q01DX009 (ip), vehicle: distilled water + Tween-80
  T/C: 94 % of control
dose: 100.0 mg/kg/injection, schedule: Q01DX009 (ip), vehicle: distilled water + Tween-80
  T/C: 99 % of control
dose: 200.0 mg/kg/injection, schedule: Q01DX009 (ip), vehicle: distilled water + Tween-80
  T/C: 108 % of control

## CN(CN1C(=O)CCC1=O)CN1C(=O)CCC1=O
dose: 30.0 mg/kg/injection, schedule: Q01DX005 (ip), vehicle: saline
  T/C: 106 % of control
dose: 60.0 mg/kg/injection, schedule: Q01DX005 (ip), vehicle: saline
  T/C: 106 % of control and 110 % of control
dose: 120.0 mg/kg/injection, schedule: Q01DX005 (ip), vehicle: saline
  T/C: 108 % of control
dose: 240.0 mg/kg/injection, schedule: Q01DX005 (ip), vehicle: saline
  T/C: 119 % of control

## Cc1ccc(S(=O)(=O)C2CC(=O)N(c3ccc(F)c(Cl)c3)C2=O)cc1 (stereo not drawn)
dose: 100.0 mg/kg/injection, schedule: Q04DX002 (ip), vehicle: saline with Tween-80
  T/C: 94 % of control
dose: 200.0 mg/kg/injection, schedule: Q04DX002 (ip), vehicle: saline with Tween-80
  T/C: 94 % of control
dose: 400.0 mg/kg/injection, schedule: Q04DX002 (ip), vehicle: saline with Tween-80
  T/C: 96 % of control

## Cc1cnc(N)c(S(=O)(=O)O)c1
dose: 25.0 mg/kg/injection, schedule: Q01DX009 (ip), vehicle: saline
  T/C: 86 % of control
dose: 50.0 mg/kg/injection, schedule: Q01DX009 (ip), vehicle: saline
  T/C: 88 % of control

## Cc1nc2sc3cc4ccccc4cc3n2c(=O)c1CN1CCCCC1
dose: 25.0 mg/kg/injection, schedule: Q04DX002 (ip), vehicle: Klucel (hydroxypropylcellulose) (HPC)
  T/C: 98 % of control
dose: 50.0 mg/kg/injection, schedule: Q04DX002 (ip), vehicle: Klucel (hydroxypropylcellulose) (HPC)
  T/C: 113 % of control
dose: 100.0 mg/kg/injection, schedule: Q04DX002 (ip), vehicle: Klucel (hydroxypropylcellulose) (HPC)
  T/C: 113 % of control

## CC(C)NC(=O)N1C2C3CCC(C)(OC3(C)C)C21 (stereo not drawn)
dose: 50.0 mg/kg/injection, schedule: Q01DX005 (ip), vehicle: saline
  T/C: 108 % of control
dose: 100.0 mg/kg/injection, schedule: Q01DX005 (ip), vehicle: saline
  T/C: 101 % of control
dose: 200.0 mg/kg/injection, schedule: Q01DX005 (ip), vehicle: saline
  T/C: 101 % of control

## NCCN1C(=O)C2C3CCC(O3)C2C1=O (stereo not drawn)
[1]
  T/C: 96 % of control
[2]
  T/C: 98 % of control
[3]
  T/C: 107 % of control

## COC(=O)c1nc(-c2ccc3c(n2)C(=O)C(N)=C(OC)C3=O)c(N)c(-c2ccc(OC)c(OC)c2O)c1C
dose: 1.5 mg/kg/injection, schedule: Q01DX009 (ip), vehicle: saline with Tween-80
  T/C: 100 % of control
dose: 3.0 mg/kg/injection, schedule: Q01DX009 (ip), vehicle: saline with Tween-80
  T/C: 118 % of control
dose: 6.0 mg/kg/injection, schedule: Q01DX009 (ip), vehicle: saline with Tween-80
  T/C: 122 % of control
dose: 6.25 mg/kg/injection, schedule: Q01DX009 (ip), vehicle: saline with Tween-80
  T/C: 150 % of control
dose: 66.0 mg/kg/injection, schedule: Q04DX003 (ip), vehicle: saline with Tween-80
  T/C: 109 % of control

## O=C1CCCC/C1=C/c1ccccc1
dose: 25.0 mg/kg/injection, schedule: Q01DX005 (ip), vehicle: distilled water + Tween-80 + alcohol
  T/C: 98 % of control
dose: 50.0 mg/kg/injection, schedule: Q01DX005 (ip), vehicle: distilled water + Tween-80 + alcohol
  T/C: 98 % of control
dose: 100.0 mg/kg/injection, schedule: Q01DX005 (ip), vehicle: distilled water + Tween-80 + alcohol
  T/C: 100 % of control
dose: 200.0 mg/kg/injection, schedule: Q01DX005 (ip), vehicle: distilled water + Tween-80 + alcohol
  T/C: 98 % of control
